Experimental data taken from patent publication US20240156790A1, “COMPOUNDS, COMPOSITIONS, AND METHODS FOR MODULATING FERROPTOSIS AND TREATING EXCITOTOXIC DISORDERS” (THE TRUSTEES OF COLUMBIA UNIVERSITY IN THE CITY OF NEW YORK, priority 2018, published 2024).
Entries after “also recorded” stand apart in the source; their conditions may differ. Each block holds one compound with its values, some of them ahead of it.

Columns and labels:
[1] = Microsomal stability, mouse liver microsomes (Table 1); format: in vitro ADME, Mouse: CD1; conditions: liver microsomes
Protocol: Each compound (1 μM) is incubated with mouse plasma, for 4 hours at 37° C., with shaking at 100 rpm. The concentration of compound in the buffer and plasma chambers is determined using LC-MS/MS. Metabolism of each compound is predicted using Sites of Metabolism (Schrodinger Suite), which combines intrinsic reactivity analysis (Hammett-Taft) with induced fit docking against 2C9, 2D6 and 3A4. This approach identifies 90% of known metabolism sites and has a false positive rate of 17%. The in vitro metabolic stability of each compound in mouse liver microsomes is determined. Pooled mouse liver microsomes are prepared and stored at −80° C. until needed. […]

[2] = Microsomal stability, dog (Table 1); format: in vitro ADME; conditions: liver microsomes; Dog: Beagle; read-out: Microsomal Stability t1/2
Protocol: Each compound (1 μM) is incubated with mouse plasma, for 4 hours at 37° C., with shaking at 100 rpm. The concentration of compound in the buffer and plasma chambers is determined using LC-MS/MS. Metabolism of each compound is predicted using Sites of Metabolism (Schrodinger Suite), which combines intrinsic reactivity analysis (Hammett-Taft) with induced fit docking against 2C9, 2D6 and 3A4. This approach identifies 90% of known metabolism sites and has a false positive rate of 17%. The in vitro metabolic stability of each compound in mouse liver microsomes is determined. Pooled mouse liver microsomes are prepared and stored at −80° C. until needed. Compound stability in liver microsomes is measured at 0, 15, 30, 45 and 60 minutes in duplicate, using LC-MS/MS analysis.

[3] = Microsomal stability, human liver microsomes (Table 1); format: in vitro ADME; conditions: Human: Pooled, 50 donors; for half-life: liver microsomes, read-out: Microsomal Stability t1/2 (converted)
[4] = Microsomal stability, rat (Table 1); format: in vitro ADME; conditions: Rat: Sprague Dawley; for half-life: liver microsomes, read-out: Microsomal Stability t1/2 (converted)
HT-1080 cells [5] = experiment: Rescue activity of Fer-1 analogs: inhibition of erastin-, IKE- or RSL3-induced death (Alamar Blue viability); format: cell-based; conditions: Homo sapiens
Protocol: HT-1080 cells are cultured in DMEM containing 10% fetal bovine serum, 1% supplemented non-essential amino acids and 1% pen/strep mixture (Gibco) and maintained in a humidified environment at 37° C. with 5% CO2 in a tissue culture incubator. 1,000 HT-1080 cells are seeded per well in duplicate 384-well plates (Corning) using a BioMek FX liquid handling robot (Beckman Coulter). The next day, the medium is replaced with 36 μL of medium containing 10 μM erastin with 4 μL of medium containing a dilution series (previously prepared) of DMSO, Fer-1 (positive control) or Fer-1 analogs. […] Cells are incubated a further 6 hours and then the Alamar Blue fluorescence intensity recorded using a Victor 3 platereader (PerkinElmer)(ex/em 530/590). All experiments are performed at least twice and the background (no cells)-subtracted Alamar Blue values for each combination are averaged between replicates. The same procedure was repeated by replacing erastin (10 μM) with IKE (3 μM) or RSL3 (0.2 μM).

[6] = tested on: HT-1080 fibrosarcoma cells; conditions: cited from earlier work
HT-1080 cells [7] = experiment: Cell viability assays in HT-1080 cells, ferroptosis induced by IKE or RSL3 (Example 8); format: cell-based; conditions: for IC50: Homo sapiens, HT-1080, 48 h
Protocol: Cell culture assays were incubated at 37° C. with 5% CO2. HT-1080 cells were grown in DMEM (Corning) supplemented with 10% FBS (Life Technologies), 1% Penicillin-Streptomycin 10,000 U/mL (Gibco), and 1% MEM Non-Essential Amino Acids Solution 100× (Gibco). For cell viability assays, cells were trypsinized, counted, and seeded into 384-well white polypropylene plates at 1,000 cells/well, unless otherwise specified. After allowing cells to adhere overnight, compounds in DMSO stocks were arrayed in a 16-point dilution series prepared in a mother plate, and treated from a daughter plate, [DMSO]=0.28%. After 24 or 48 h, 50% CellTiter-Glo (Promega) 50% cell culture medium was added to each well and incubated at room temperature with shaking for 15 min. Luminescence was measured using a Victor X5 plate reader (PerkinElmer). All cell viability data were normalized to the DMSO vehicle condition. […] All 384w measurements were performed in triplicate
We first evaluated the efficacy of four pyridine analogs, TH-2-9-1, TH-2-31, TH-2-37-1, and TH-2-37-2, in suppressing ferroptosis induced by IKE and RSL3 in HT-1080 cells. […] We sought to determine whether incorporation of pyridine changed stability in mouse liver microsomes.

HT-1080 cells [8] = experiment: Rescue activity of selected Fer-1 analogs, dose-response in HT-1080 cells (cell titer glo); format: cell-based
Protocol: Selected Fer-1 analogs containing a pyridine moiety (FIG. 4) were tested to examine their efficacy and overall potency in inhibiting ferroptosis. For each of these compounds, dose-response curves were generated in HT-1080 cells looking at the effectiveness of the molecules in inhibiting ferroptosis induced by either 3 μM IKE or 0.2 μM RSL3, Fer-1 was used as a positive control. For each dose-response curve, 1,000 cells/well were seeded in a 384 well plate and allowed to adhere overnight prior to treating with compound from a daughter plate. Cells were treated for 48 hours, unless otherwise noted, prior to viability being analyzed using cell titer glo (40 μL per well). All liquid handling was performed using the BioMek. All samples were prepared in triplicate, unless otherwise noted.

[9] = CD1, mouse, Mouse: CD1, read-out: Microsomal Stability t1/2
[10] = HT-1080, ^a 50% viability, HT-1080 cells treated with 10 μM erastin
[11] = HT-1080, ^b 50% viability, HT-1080 treated with 3 μM IKE
[12] = HT-1080, ^c 50% viability, HT-1080 treated with 0.2 μM RSL3

Compound: CCCC(CC)Nc1ccc(C(=O)OC(C)(C)C)cc1Nc1ccccc1 (stereo not shown) [CFI-4081]
- Microsomal Stability t1/2 [3]: > 2 h

Compound: Cc1noc(-c2ccc(NC34CC5CC(CC(C5)C3)C4)c(NC3CCCCC3)c2)n1 [CFI-4083]
- half-life ([1]; CD1 (mouse), mouse, human, in either mouse or human liver microsomes, read-out: T1/2): > 2 h
- half-life [1, 9]: > 2 h
- half-life [3]: > 2 h

Compound: C=C(/C=C\CNC12CC3CC(CC(C3)C1)C2)COC(C)(C)C [CFI-A4]
- Microsomal Stability t1/2 [3]: > 2 h
- Microsomal Stability t1/2 [4]: ~0.333 h
- EC50 (HT-1080 cells [5]; [11]): 16 nM
- EC50 (HT-1080 cells [5]; [12]): 1 nM

Compound: CCOC(=O)c1ccc(NC2CCCCC2)c(NCc2ccccc2)c1 [SRS11-92]
- potency, in words [6]: low nanomolar potency

Compound: CC(C)(C)OC(=O)c1ccc(NC23CC4CC(CC(C4)C2)C3)c(N=Cc2cncnc2)c1 [SRS16-86]
- decrease in potency relative to SRS11-92 [6]: > 50 fold
- decrease in potency relative to fer-1 [6]: ~4 fold

Continued, in another order:

- half-life [1, 9]: 0.0533 to 0.055 h
- half-life [2]: > 2 h
- half-life [3]: > 2 h
- half-life [4]: 0.5 to 1 h
Compound: Nc1cc(-c2ncco2)ccc1NC1CCCCC1 [CFI-4051]
- EC50 (HT-1080 cells [5]; [10]): 36 nM
- EC50 (HT-1080 cells [5]; [11]): 13 nM
- EC50 (HT-1080 cells [5]; [12]): 5 nM

- half-life [1, 9]: 0.27 to 0.277 h
- half-life [2]: > 2 h
- half-life [3]: > 2 h
- half-life [4]: 0.5 to 1 h
Compound: CC(C)(C)OC(=O)c1cc(N)c(NC23CC4CC(CC(C4)C2)C3)cc1Cl [CFI-A3]
- EC50 (HT-1080 cells [5]; [11]): 26 nM
- EC50 (HT-1080 cells [5]; [12]): 6 nM

- half-life [1, 9]: 0.128 h
- IC50 (HT-1080 cells [7]; ^b 2 μM IKE, 48 hours, 1,000 cells/well): 16.9 nM
- IC50 (HT-1080 cells [7]; ^c 0.2 μM RSL3, 48 hours, 1,000 cells/well): 2.7 nM
Compound: COc1cnc(NC2CCCCC2)c(NC2CCCCC2)c1 [TH-2-9-1, N^2,N^3-dicyclohexyl-5-methoxypyridine-2,3-diamine]
- potency relative to fer-1 at suppressing ferroptosis, in words (HT-1080 cells [7]): slightly less potent than fer-1 in inhibiting IKE-induced death
- death observed with RSL3 (HT-1080 cells [8]; 0.2 μM RSL3, inhibitor range 10 μM-0 μM): No death was observed
- potency compared, in words (HT-1080 cells [8]; 3 μM IKE, 0.2 μM RSL3, 10 μM erastin): an order of magnitude more potent than Fer-1 for all inducers beyond RSL3; also recorded: the most potent analog for RSL3 alone
- rescue against IKE and erastin (HT-1080 cells [8]; inhibitor 1 μM-0 μM, 3 μM IKE, 10 μM erastin, 48 hours): ~50%
- EC50 (HT-1080 cells [5]; [10]): 0.1 nM
- EC50 (HT-1080 cells [5]; [11]): 0.21 nM
- EC50 (HT-1080 cells [5]; [12]): 0.2 nM
